These results are taken from patent US12435095B2, “Substituted morpholines as ATR kinase inhibitors” (Shanghai Annova Biotechnology Co., Ltd., priority 2021, dated 2025).

This experiment relates to human colon cancer LoVo cells. As to the kind of experiment: Cell proliferation inhibition assay (CellTiter-Glo). It is filed as cell-based. The note with it: LoVo cells, 96 hours, CellTiter-Glo; for IC50 / Emax: Homo sapiens; for IC50: read-out: LoVo IC50; for Emax: read-out: Max Inhibition. The text has this:
Experimental method: A CellTiter-Glo cell viability assay kit was used to test the inhibitory effect of the compounds on the in vitro proliferation of human colon cancer LoVo cells.
Experimental materials: LoVo cells (ATCC, Cat. No. CCL-29); F-12K medium (Invitrogen, Cat. No. 21127-022); fetal bovine serum (Biological Industries, Cat. No. 04-002-1A); GlutaMAX (Gibco, Cat. No. 35050-061); 0.25% trypsin-EDTA (Invitrogen, Cat. No. 25200-072); CellTiter-Glo kit (Promega, Cat. No. G7558).
Experimental procedure: (1) F-12K medium, fetal bovine serum and GlutaMAX were formulated into a complete medium for culturing LoVo cells; (2) well-grown LoVo cells were taken, digested with trypsin and transferred to a centrifuge tube, and centrifuged; the supernatant was discarded, and cells were resuspended by adding a fresh medium and counted by a Vi-CELL XR cell counter; the density of the cell suspension was adjusted to 25,000 to 30,000 cells/mL, and the cell suspension was added at 100 μL/well in a 96-well cell culture plate, while a blank control group was set up with no cells added, and the cell culture plate was incubated in a carbon dioxide incubator overnight; (3) a DMSO solution of the compound to be tested was dispensed into the above 96-well cell culture plate using an HP D300 ultra-micro sampler, with 0.5 μL of the solution per well and 10 concentrations for each compound (3× dilution), while a DMSO control group with no compound added was set up, and the plate was continued to be incubated in a carbon dioxide incubator for 96 hours; (4) the cell culture plate was taken out and equilibrated to room temperature, with 100 μL of a CellTiter-Glo reagent added to each well, and then the plate was kept away from light, shaken for 10 minutes and then incubated for 10 minutes; (5) the cell culture plate was put into EnSpire for plate reading, and the luminescence value RLU was recorded.
Data processing: (1) The inhibition rate was calculated from the luminescence values: “RLUDMSO” is the luminescence value of the DMSO control group without compound, “RLUblank” is the luminescence value of the blank control group without cells, and “RLUcompound” is the luminescence value of the compound test group, and the inhibition rate=[1−(RLUcompound−RLUblank)/(RLUDMSO−RLUblank)]×100%; (2) with curve fitting using the Excel add-on XLFit, the IC50 value was calculated.

For the compound `C[C@@H]1COCCN1c1cc(-c2cccc3[nH]ccc23)nc2c1ccn2S(C)(=O)=O` [Compound 2, (R)-4-(6-(1H-indol-4-yl)-1-(methylsulfonyl)-1H-pyrrolo[2,3-b]pyridin-4-yl)-3-methylmorpholine], the IC50 (usually the concentration needed to halve the response being measured) came to 0.5 µM and the “Max Inhibition” value amounted to 94%.

On to `C[C@@H]1COCCN1c1cc(-c2cncc3[nH]ccc23)nc2c1ccn2S(C)(=O)=O` [Compound 3, (R)-3-methyl-4-(1-(methylsulfonyl)-6-(1H-pyrrolo[2,3-c]pyridin-4-yl)-1H-pyrrolo[2,3-b]pyridin-4-yl)morpholine], for which the concentration for half-maximal inhibition (IC50) is 0.43 µM and the “Max Inhibition” value was found to be 93%.

As for `C[C@@H]1COCCN1c1cc(-c2ccnc3[nH]ccc23)nc2c1ccn2CS(C)(=O)=O` [Compound 4′, reference compound], the IC50 stood at 2.34 µM.

For the compound `CC(n1ccc2c(N3CCOC[C@H]3C)cc(-c3ccnc4[nH]ccc34)nc21)S(C)(=O)=O` (some centres unmarked) [Compound 5′, reference compound], the concentration for half-maximal inhibition (IC50) amounted to 1.88 µM.

Consider `C[C@@H]1COCCN1c1cc(-c2cc(F)cc3[nH]ccc23)nc2c1ccn2S(C)(=O)=O` [Compound 7, (R)-4-(6-(6-fluoro-1H-indol-4-yl)-1-(methylsulfonyl)-1H-pyrrolo[2,3-b]pyridin-4-yl)-3-methylmorpholine], for which the IC50 worked out at 0.42 µM and the “Max Inhibition” value is 95%.

As to `CC(C)S(=O)(=O)n1ccc2c(N3CCOC[C@H]3C)cc(-c3ccnc4[nH]ccc34)nc21` [Compound 14, (R)-4-(1′-(isopropylsulfonyl)-1H,1′H-[4,6′-dipyrrolo[2,3-b]pyridin]-4′-yl)-3-methylmorpholine], the IC50 was 2.13 µM and the Emax stood at 93%.

Turning to `C[C@@H]1COCCN1c1cc(-c2ccnc3[nH]ccc23)nc2c1ccn2S(=O)(=O)C1CC1` [Compound 15, (R)-4-(1′-(cyclopropylsulfonyl)-1H,1′H-[4,6′-dipyrrolo[2,3-b]pyridin]-4′-yl)-3-methylmorpholine], the half-inhibitory concentration (IC50) was 1.27 µM and the Emax worked out at 94%.

For the compound `C[C@@H]1COCCN1c1cc(-c2ccnc3[nH]ccc23)nc2c1ccn2S(=O)(=O)N(C)C` [Compound 16, (R)—N,N-dimethyl-4′-(3-methylmorpholinyl)-1H,1′H-[4,6′-dipyrrolo[2,3-b]pyridine]-1′-sulfamide], the concentration for half-maximal inhibition (IC50) came out at 1.82 µM and the Emax was 93%.

Turning to `C[C@@H]1COCCN1c1nc(-c2ccnc3[nH]ccc23)nc2c1ccn2S(C)(=O)=O` [Compound 17, (R)-3-methyl-4-(7-(methylsulfonyl)-2-(1H-pyrrolo[2,3-b]pyridin-4-yl)-7H-pyrrolo[2,3-d]pyrimidin-4-yl)morpholine], the IC50 stood at 0.17 µM and the “Max Inhibition” value is 93%.

Turning to `C[C@@H]1COCCN1c1nc(-c2cccc3[nH]ccc23)nc2c1ccn2S(C)(=O)=O` [Compound 18, (R)-4-(2-(1H-indol-4-yl)-7-(methylsulfonyl)-7H-pyrrolo[2,3-d]pyrimidin-4-yl)-3-methylmorpholine], the IC50 is 0.25 µM and the “Max Inhibition” value is 92%.

Regarding `C[C@@H]1COCCN1c1nc(-c2cncc3[nH]ccc23)nc2c1ccn2S(C)(=O)=O` [Compound 19, (R)-3-methyl-4-(7-(methylsulfonyl)-2-(1H-pyrrolo[2,3-c]pyridin-4-yl)-7H-pyrrolo[2,3-d]pyrimidin-4-yl)morpholine], the 50% inhibitory concentration (IC50) was 0.07 µM and the “Max Inhibition” value worked out at 90%.

As for `C[C@@H]1COCCN1c1nc(-c2cc(F)cc3[nH]ccc23)nc2c1ccn2S(C)(=O)=O` [Compound 20, (R)-4-(2-(6-fluoro-1H-indol-4-yl)-7-(methylsulfonyl)-7H-pyrrolo[2,3-d]pyrimidin-4-yl)-3-methylmorpholine], the IC50 is 0.49 µM and the “Max Inhibition” value came to 91%.

For the compound `C[C@@H]1COCCN1c1nc(-c2ccnc3[nH]ccc23)nc2c1ccn2S(=O)(=O)CCO` [Compound 21, (R)-2-((4-(3-methylmorpholinyl)-2-(1H-pyrrolo[2,3-b]pyridin-4-yl)-7H-pyrrolo[2,3-d]pyrimidin-7-yl)sulfonyl)ethanol], the IC50 stood at 0.71 µM and the Emax came out at 92%.

With `C[C@@H]1COCCN1c1nc(-c2ccnc3[nH]ccc23)nc2c1ncn2S(C)(=O)=O` [Compound 22, (R)-3-methyl-4-(9-(methylsulfonyl)-2-(1H-pyrrolo[2,3-b]pyridin-4-yl)-9H-purin-6-yl)morpholine], the IC50 is 1.04 µM and the “Max Inhibition” value was 93%.

`C[C@@H]1COCCN1c1nc(-c2ccnc3[nH]ccc23)nc2c1cnn2S(C)(=O)=O` [Compound 23, (R)-3-methyl-4-(1-(methylsulfonyl)-6-(1H-pyrrolo[2,3-b]pyridin-4-yl)-1H-pyrazolo[3,4-d]pyrimidin-4-yl)morpholine]: the “Max Inhibition” value is 92%.

`C[C@@H]1COCCN1c1cc(-c2ccnc3[nH]ccc23)nc2c1ncn2S(C)(=O)=O` [Compound 24, (R)-3-methyl-4-(3-(methylsulfonyl)-5-(1H-pyrrolo[2,3-b]pyridin-4-yl)-3H-imidazo[4,5-b]pyridin-7-yl)morpholine]: the IC50 was determined as 1.02 µM and the “Max Inhibition” value was 92%.

In the case of `C[C@@H]1COCCN1c1nc(-c2cncc3[nH]ccc23)cc2c1ncn2S(C)(=O)=O` [Compound 25, (R)-3-methyl-4-(1-(methylsulfonyl)-6-(1H-pyrrolo[2,3-c]pyridin-4-yl)-1H-imidazo[4,5-c]pyridin-4-yl)morpholine], the IC50 was 0.24 µM and the “Max Inhibition” value is 89%.

For the compound `C[C@@H]1COCCN1c1nc(-c2ccnc3[nH]ccc23)cc2c1ccn2S(C)(=O)=O` [Compound 26, (R)-3-methyl-4-(1-(methylsulfonyl)-6-(1H-pyrrolo[2,3-b]pyridin-4-yl)-1H-pyrrolo[3,2-c]pyridin-4-yl)morpholine], the IC50 is 0.74 µM and the “Max Inhibition” value was 92%.

As to `C[C@@H]1COCCN1c1nc(-c2nc3ccccc3[nH]2)nc2c1ccn2S(C)(=O)=O` [Compound 27, (R)-4-(2-(1H-benzo[d]imidazol-2-yl)-7-(methylsulfonyl)-7H-pyrrolo[2,3-d]pyrimidin-4-yl)-3-methylmorpholine], the concentration for half-maximal inhibition (IC50) worked out at 0.62 µM and the “Max Inhibition” value amounted to 94%.

Turning to `CNc1nc2ccccc2n1-c1nc(N2CCOC[C@H]2C)c2ccn(S(C)(=O)=O)c2n1` [Compound 28, (R)—N-methyl-1-(4-(3-methylmorpholinyl)-7-(methylsulfonyl)-7H-pyrrolo[2,3-d]pyrimidin-2-yl)-1H-benzo[d]imidazol-2-amine], the IC50 worked out at 0.1 µM and the Emax worked out at 92%.

In the case of `Cc1cc(-c2nc(N3CCOC[C@H]3C)c3ccn(S(C)(=O)=O)c3n2)c2cc[nH]c2c1` [Compound 29, (R)-3-methyl-4-(2-(6-methyl-1H-indol-4-yl)-7-(methylsulfonyl)-7H-pyrrolo[2,3-d]pyrimidin-4-yl)morpholine], the half-maximal inhibitory concentration (IC50) came to 0.38 µM and the “Max Inhibition” value stood at 94%.

`C[C@@H]1COCCN1c1nc(-c2cc(C#N)cc3[nH]ccc23)nc2c1ccn2S(C)(=O)=O` [Compound 30, (R)-4-(4-(3-methylmorpholinyl)-7-(methylsulfonyl)-7H-pyrrolo[2,3-d]pyrimidin-2-yl)-1H-indol-6-carbonitrile]: the IC50 was 1.06 µM and the Emax was determined as 93%.
